Assay results taken from patent US20250241892A1, “5-METHOXY-N,N-[…][…] THE TREATMENT OF PSYCHOMOTOR RETARDATION” (GH RESEARCH IRELAND LIMITED, priority 2022, published 2025).

Legend:
[1] = tested on: patients with treatment-resistant major depressive disorder (TRD); experiment: Phase 1/2 clinical trial of inhaled 5-MeO-DMT in TRD; details: for Patients who experienced at least one ADR: n=4; for Patients with MADRS remission: n=4, day seven after dosing
Description: Patients were assigned to different groups. In the context of the present invention, the group who received a single, 12 mg dose and the group who underwent an intra-day individualized dosing regimen (IDR) that allowed for multiple, escalating doses (6 mg, 12 mg and 18 mg) within a single day, driven by the intensity of the patient-reported psychedelic experience are of interest.
This trial was designed in two parts. Part A was an open-label, single-arm, single-dose Phase 1 trial with two dose levels (12 mg (n=4) and 18 mg (n=4)). […] The primary endpoint of Part B was to assess the effects on the severity of depression, as assessed by the proportion of patients in remission on day seven after dosing, defined as a MADRS total score of less than or equal to 10.

[2] = Pharmacokinetics of 5-MeO-DMT and bufotenine after inhalation; format: in vivo, human
Description: Blood samples were obtained at 1; 2; 4; 7; 10; 15; 20; 30; 45 min and 1; 1.5; 2; 3; 4 hours after administration.
PK parameters were generated by algebraic analysis of the concentration versus time plots for each individual. The analysis was carried out using the software Phoenix WinNonlin 6.3.

[3] = TRD, 12 mg n=4, 2 hours after dose, baseline 16
[4] = TRD, 12 mg n=4, 3 hours after dose, baseline 18
[5] = TRD, 12 mg n=4, 3 hours after dose, baseline 25
[6] = TRD, 12 mg n=4, day 1, baseline 12
[7] = TRD, 12 mg n=4, day 1, baseline 13
[8] = TRD, 12 mg n=4, day 1, baseline 16
[9] = TRD, 12 mg n=4, day 1, baseline 25
[10] = TRD, 12 mg n=4, day 7, baseline 12
[11] = TRD, 12 mg n=4, day 7, baseline 13
[12] = TRD, 12 mg n=4, day 7, baseline 16
[13] = TRD, 12 mg n=4, day 7, baseline 25
[14] = TRD, IDR n=8, 2 hours after last dose, baseline 27
[15] = TRD, IDR n=8, 2 hours after last dose, baseline 28
[16] = TRD, IDR n=8, day 1, baseline 25
[17] = TRD, IDR n=8, day 1, baseline 27
[18] = TRD, IDR n=8, day 7, baseline 25
[19] = TRD, IDR n=8, day 7, baseline 27
[20] = TRD, IDR n=8, day 7, baseline 30

COc1ccc2[nH]cc(CCN(C)C)c2c1 [5-MeO-DMT]
Changes in safety laboratory analyses, vital signs, psychiatric safety assessments, measures of cognitive function ([1]; Part A and Part B): No clinically significant changes
SAEs reported ([1]; Part A, 12 mg and 18 mg groups): No SAEs
Patients who experienced at least one ADR ([1]; Part A, 12 mg single dose): 3 of 4
Patients with MADRS remission ([1]; Part A, 12 mg): 50%
Patients who experienced at least one ADR ([1]; Part A, 18 mg single dose): 3 of 4
Patients with MADRS remission ([1]; Part A, 18 mg): 25%
Outcome of ADRs ([1]; Part B, IDR, n=8): All ADRs resolved spontaneously
SAEs reported ([1]; Part B, IDR, n=8): No SAEs
MADRS Suicidal Thoughts, sum of patient scores ([1]; TRD, 12 mg n=4, 2 hours after dose, baseline 8): 3
MADRS Inner Tension, sum of patient scores ([1]; TRD, 12 mg n=4, 2 hours after dose, baseline 13): 2
MADRS Concentration Difficulties, sum of patient scores [1, 3]: 7
MADRS Inability to Feel, sum of patient scores [1, 3]: 9
MADRS Lassitude, percentage improvement [1, 3]: 38%
MADRS Lassitude, sum of patient scores [1, 3]: 10
MADRS Pessimistic Thoughts, percentage improvement [1, 3]: 50.00%
MADRS Pessimistic Thoughts, sum of patient scores [1, 3]: 8
BPRS Blunted Affect, sum of patient scores ([1]; TRD, 12 mg n=4, 3 hours after dose, baseline 11): 8
BPRS Emotional Withdrawal, sum of patient scores ([1]; TRD, 12 mg n=4, 3 hours after dose, baseline 13): 11
BPRS Tension, sum of patient scores ([1]; TRD, 12 mg n=4, 3 hours after dose, baseline 14): 9
BPRS Guilt Feelings, percentage improvement [1, 4]: 50.00%
BPRS Guilt Feelings, sum of patient scores [1, 4]: 9
BPRS Anxiety, percentage improvement [1, 5]: 56.00%
BPRS Anxiety, sum of patient scores [1, 5]: 11
MADRS Suicidal Thoughts, sum of patient scores ([1]; TRD, 12 mg n=4, day 1, baseline 8): 5
BPRS Blunted Affect, sum of patient scores ([1]; TRD, 12 mg n=4, day 1, baseline 11): 6
MADRS Reduced Sleep, percentage improvement [1, 6]: 17%
MADRS Reduced Sleep, sum of patient scores [1, 6]: 10
BPRS Emotional Withdrawal, sum of patient scores [1, 7]: 8
MADRS Inner Tension, sum of patient scores [1, 7]: 3
BPRS Tension, sum of patient scores ([1]; TRD, 12 mg n=4, day 1, baseline 14): 6
MADRS Concentration Difficulties, sum of patient scores [1, 8]: 2
MADRS Inability to Feel, sum of patient scores [1, 8]: 1
MADRS Lassitude, percentage improvement [1, 8]: 100%
MADRS Lassitude, sum of patient scores [1, 8]: 0
MADRS Pessimistic Thoughts, sum of patient scores [1, 8]: 7
BPRS Guilt Feelings, sum of patient scores ([1]; TRD, 12 mg n=4, day 1, baseline 18): 5
BPRS Anxiety, percentage improvement [1, 9]: 76.00%
BPRS Anxiety, sum of patient scores [1, 9]: 6
MADRS Suicidal Thoughts, sum of patient scores ([1]; TRD, 12 mg n=4, day 7, baseline 8): 7
BPRS Blunted Affect, sum of patient scores ([1]; TRD, 12 mg n=4, day 7, baseline 11): 5
MADRS Reduced Sleep, percentage improvement [1, 10]: 50%
MADRS Reduced Sleep, sum of patient scores [1, 10]: 6
BPRS Emotional Withdrawal, sum of patient scores [1, 11]: 6
MADRS Inner Tension, sum of patient scores [1, 11]: 5
BPRS Tension, sum of patient scores ([1]; TRD, 12 mg n=4, day 7, baseline 14): 6
MADRS Concentration Difficulties, sum of patient scores [1, 12]: 3
MADRS Inability to Feel, sum of patient scores [1, 12]: 1
MADRS Lassitude, percentage improvement [1, 12]: 81%
MADRS Lassitude, sum of patient scores [1, 12]: 3
MADRS Pessimistic Thoughts, percentage improvement [1, 12]: 50.00%
MADRS Pessimistic Thoughts, sum of patient scores [1, 12]: 8
BPRS Guilt Feelings, sum of patient scores ([1]; TRD, 12 mg n=4, day 7, baseline 18): 5
BPRS Anxiety, percentage improvement [1, 13]: 76.00%
BPRS Anxiety, sum of patient scores [1, 13]: 6
MADRS Suicidal Thoughts, sum of patient scores ([1]; TRD, IDR n=8, 2 hours after last dose, baseline 11): 3
MADRS Inner Tension, sum of patient scores ([1]; TRD, IDR n=8, 2 hours after last dose, baseline 26): 11
MADRS Lassitude, percentage improvement [1, 14]: 63%
MADRS Lassitude, sum of patient scores [1, 14]: 10
MADRS Pessimistic Thoughts, percentage improvement [1, 15]: 75.00%
MADRS Pessimistic Thoughts, sum of patient scores [1, 15]: 7
MADRS Concentration Difficulties, sum of patient scores ([1]; TRD, IDR n=8, 2 hours after last dose, baseline 30): 11
MADRS Inability to Feel, sum of patient scores ([1]; TRD, IDR n=8, 2 hours after last dose, baseline 36): 12
BPRS Emotional Withdrawal, sum of patient scores ([1]; TRD, IDR n=8, 3 hours after last dose, baseline 13): 8
BPRS Blunted Affect, sum of patient scores ([1]; TRD, IDR n=8, 3 hours after last dose, baseline 15): 11
BPRS Tension, sum of patient scores ([1]; TRD, IDR n=8, 3 hours after last dose, baseline 16): 11
BPRS Guilt Feelings, sum of patient scores ([1]; TRD, IDR n=8, 3 hours after last dose, baseline 34): 14
BPRS Anxiety, sum of patient scores ([1]; TRD, IDR n=8, 3 hours after last dose, baseline 37): 19
MADRS Suicidal Thoughts, sum of patient scores ([1]; TRD, IDR n=8, day 1, baseline 11): 1
BPRS Emotional Withdrawal, sum of patient scores ([1]; TRD, IDR n=8, day 1, baseline 13): 8
BPRS Blunted Affect, sum of patient scores ([1]; TRD, IDR n=8, day 1, baseline 15): 8
BPRS Tension, sum of patient scores ([1]; TRD, IDR n=8, day 1, baseline 16): 11
MADRS Reduced Sleep, percentage improvement [1, 16]: 52%
MADRS Reduced Sleep, sum of patient scores [1, 16]: 12
MADRS Inner Tension, sum of patient scores ([1]; TRD, IDR n=8, day 1, baseline 26): 6
MADRS Lassitude, percentage improvement [1, 17]: 81%
MADRS Lassitude, sum of patient scores [1, 17]: 5
MADRS Pessimistic Thoughts, sum of patient scores ([1]; TRD, IDR n=8, day 1, baseline 28): 4
MADRS Concentration Difficulties, sum of patient scores ([1]; TRD, IDR n=8, day 1, baseline 30): 1
BPRS Guilt Feelings, sum of patient scores ([1]; TRD, IDR n=8, day 1, baseline 34): 11
MADRS Inability to Feel, sum of patient scores ([1]; TRD, IDR n=8, day 1, baseline 36): 2
BPRS Anxiety, sum of patient scores ([1]; TRD, IDR n=8, day 1, baseline 37): 16
MADRS Suicidal Thoughts, sum of patient scores ([1]; TRD, IDR n=8, day 7, baseline 11): 3
BPRS Emotional Withdrawal, sum of patient scores ([1]; TRD, IDR n=8, day 7, baseline 13): 8
BPRS Blunted Affect, sum of patient scores ([1]; TRD, IDR n=8, day 7, baseline 15): 8
BPRS Tension, sum of patient scores ([1]; TRD, IDR n=8, day 7, baseline 16): 10
MADRS Reduced Sleep, percentage improvement [1, 18]: 64%
MADRS Reduced Sleep, sum of patient scores [1, 18]: 9
MADRS Inner Tension, sum of patient scores ([1]; TRD, IDR n=8, day 7, baseline 26): 12
MADRS Lassitude, percentage improvement [1, 19]: 89%
MADRS Lassitude, sum of patient scores [1, 19]: 3
MADRS Pessimistic Thoughts, sum of patient scores ([1]; TRD, IDR n=8, day 7, baseline 28): 3
MADRS Concentration Difficulties, percentage improvement [1, 20]: 70.00%
MADRS Concentration Difficulties, sum of patient scores [1, 20]: 9
BPRS Guilt Feelings, sum of patient scores ([1]; TRD, IDR n=8, day 7, baseline 34): 10
MADRS Inability to Feel, sum of patient scores ([1]; TRD, IDR n=8, day 7, baseline 36): 6
BPRS Anxiety, sum of patient scores ([1]; TRD, IDR n=8, day 7, baseline 37): 17
Detectability in plasma ([2]; 3 hours after inhalation, whole dose range 6, 12, 18 mg): no longer detectable
Pharmacokinetic measurements with uptitration dosing schemes ([2]; compared with single doses): Substantially similar results
